Test results reported in patent US11583570B2, “Use of autoinducer-related pathway in inducing apoptosis and anti-infective therapy” (TSINGHUA UNIVERSITY, priority 2017, dated 2023).

Tests used:
monocytic RAW264.7 = experiment: Annexin V/PI apoptosis detection, RAW264.7; format: cell-based
Procedure: (§1) Cell apoptosis was detected with Annexin V/PI apoptosis detection Kit. Briefly, cells were stimulated with HSLs or left untreated. 6 hrs later, cells were collected and stained with Annexin VFITC and PI for 15 min at RT, then the apoptotic effect was measured by flow cytometry. OT-I or OT-II splenocytes were pulsed with specific peptides or PMA and ionomycin mixture with or without HSLs or TNF α plus cycloheximide. 24 hrs later, cells and supernatants were collected separately. For OT-I activation, cells were stained with CD69 and CD8. For OT-II activation, cells were stained with CD69 and CD4. Cell activation was measured by flow cytometry. All supernatants were detected for IL-2 secretion by ELISA.

THP-1 cell line = experiment: Annexin V/PI apoptosis detection, THP-1; format: cell-based, human; settings: THP-1
Procedure: as §1
In order to verify TNFR1-FADD-caspase8-caspase3 pathway inhibitor can block immunocyte apoptosis caused by 3OC12-HSL clinically. The inventors use a clinical version of caspase inhibitor Emricasan as a test. […] To be specific, in a 12 plate, THP-1 cells were cultured with indicated concentrations of 3OC and Emricasan. After 1 hr, cells were collection for flow cytometric analysis of AnnexinV and PI. […] In FIG. 17b, live cell percentage of different treatment were enumerated by flow cytometry. Bar graphs of live cell percentage are depicted by mean±SEM. Then samples prepared as in FIG. 17a and FIG. 17b were used for WB analysis for the activation (cleavage) of Caspase 8 and 3. […]

lymphoblast H9 = experiment: Annexin V/PI apoptosis detection, H9; format: cell-based, human
Procedure: as §1

[1] = system: thioglycolate-induced macrophages; experiment: Annexin V/PI apoptosis detection, macrophages; format: cell-based
Procedure: as §1

caspases 8 and 3 [2] = experiment: Caspase 8 and 3 cleavage in CD4 T cells (Western blot), mouse; format: cell-based; settings: mouse (FIG. 2d)
caspases 8 and 3 [3] = experiment: Caspase 8 and 3 cleavage in human cells (Western blot); format: cell-based; settings: human (FIGS. 3a and b)
TNFR1 (1-293) mutant = target: T1, TNFR1 (1-293) mutant (Homo sapiens, UniProt P19438); experiment: Single molecule photo-bleaching step counting (MSFQ), TNFR1 in HELA cells; format: cell-based; settings: DD-deleted TNFR1-eGFP
T1 construct: human TNFR1 (1-293) mutant was amplified from human TNFR1 with specific primers and cloned into peGFP-N1 vector; expressed in transfected cells; host or cells: HeLa cells
T1 sequence (P19438 30-293): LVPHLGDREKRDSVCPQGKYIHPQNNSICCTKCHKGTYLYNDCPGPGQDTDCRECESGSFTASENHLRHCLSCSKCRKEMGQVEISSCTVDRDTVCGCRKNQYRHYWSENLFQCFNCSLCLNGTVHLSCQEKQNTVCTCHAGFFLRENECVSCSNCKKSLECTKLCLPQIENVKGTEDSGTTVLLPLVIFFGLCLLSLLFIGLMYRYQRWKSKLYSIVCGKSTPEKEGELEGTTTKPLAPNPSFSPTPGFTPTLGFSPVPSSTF
Text: Then the cells were stimulated with HSLs, TNF α, or left untreated, and washed twice with PBS and fixed with 4% paraformaldehyde before imaging. GFP was excited at 488 nm with a laser power of 5 mW measured after the laser passing through the objective. […] The EM gain of the EMCCD camera was set at 300. Movies of 400 frames were acquired for each sample at a full-frame rate of 10 Hz. For imaging analysis, the background fluorescence was firstly subtracted from the movie acquired from the fixed cells using the rolling ball method in Image J software, and regions of interest on movies were selected manually according to the outline of cells. To analyze the bleaching steps, the fluorescence time courses of each fluorescent spots were first constructed by Image J plugin and bleaching steps were then counted manually.

[4] = Atomic force microscopy of reconstituted lipid domains; format: physicochemical
Procedure: […] The dried lipid film was resuspended with 4 mM HEPES buffer (with 150 mM NaCl) to produce SUV. Vesicle solution (100 μl) was added to freshly cleaved mica clamped in a fluid cell on the AFM heater head. After incubation at 55° C. for 30 min and then kept at RT for another 30 min, the bilayers were rinsed extensively with HEPES buffer to remove excess vesicles.
AFM images were obtained at RT on a NanoScope V Multimode Scanning Probe Microscope (Digital Instrument, Veeco, Santa Barbara, Calif., USA) in the tapping mode using V shape Si3N4 tips (model DNL-10) with spring constants of ˜0.35 N/m and resonance frequencies between 8 and 10 kHz in aqueous solutions. All experiments were conducted in Hepes buffer using a commercially available fluid cell, sealed by an O-ring. A J scanner (125 μm×125 μm) was used with a scan rate between 0.8 and 2 Hz per line.

For `CCCCCCCCCC(=O)CC(=O)N[C@H]1CCOC1=O` [3OC12 HSL, N-(3-oxo-dodecanoyl) homoserine lactone], the “sensitivity to 3OC12 HSL” value (monocytic RAW264.7) was “sensitive”, the “sensitivity to 3OC12 HSL” value (THP-1 cell line) was “sensitive” and the “sensitivity to 3OC12 HSL” value (lymphoblast H9) was “relatively resistant”. For the same molecule, the “sensitivity to 3OC12 HSL” value [1] was “relatively resistant”, the “caspase 8 and 3 cleavage” value (caspases 8 and 3 [2]) was “cleaved in a dose and time-dependent manner” and the “caspase 8 and 3 cleavage” value (caspases 8 and 3 [3]) was “cleaved in a dose and time-dependent manner”. The “three step bleaching frequency” value (TNFR1 (1-293) mutant; untreated 7.1) was 17.0+/−1.3%, the “one step bleaching frequency” value (TNFR1 (1-293) mutant; untreated 60.0) was 47.1% and the “appearance of ordered lipid domains” value ([4]; domains with cholesterol and sphingolipids) was “clear dissolution of the elevated plains”. The “appearance of smaller domains unrelated to lipid rafts” value ([4]; mixture of DOPC and DPPG) was “minimally affected”.
